According to publication PMC11396667, “Design, Synthesis, and Anticancer and Antibacterial Activities of Quinoline-5-Sulfonamides” (Molecules, 2024):
≈ marks a conversion by molar mass, not a printed value.

Experiments:
[1] = system: methicillin-resistant S. aureus SA 630; test: MIC, microtitration broth method, MRSA2; type: cell-based; conditions: Staphylococcus aureus; 24 h, 37 °C, CaMH broth
Excerpt: (§1) Since there is a general decrease in immunity during the treatment of oncological patients, i.e., patients are more susceptible to infectious diseases, it is advantageous if anticancer agents show antimicrobial properties at the same time. Therefore, the effects of the compounds were also investigated against Gram-positive bacteria. For this purpose, the susceptible collection strains of aerobic Staphylococcus aureus ATCC 29213 and facultatively aerobic Enterococcus faecalis ATCC 29212 and resistant clinical isolates of methicillin-resistant S. aureus (MRSA) SA 3202, SA 630 carrying the mecA gene, and vancomycin-resistant isolates of E. faecalis (VRE) 342B, 368, and 725B carrying the vanA gene were selected. Thus, the selection of the studied bacterial strains was adopted following the CLSI ([…]) international reference methodologies.
(§2) The in vitro antibacterial activity of the synthesized compounds was evaluated against representatives of multidrug-resistant bacteria, […] clinical isolates of methicillin-resistant S. aureus: clinical isolates of human origin, MRSA SA 3202, and MRSA SA 630 (National Institute of Public Health, Prague, Czech Republic), carrying the mecA gene. These two clinical isolates were classified as vancomycin-susceptible (but with a higher MIC of vancomycin equal to 2 μg/mL (VA2-MRSA). Vancomycin- and methicillin-susceptible S. aureus ATCC 29213 and vancomycin-susceptible Enterococcus faecalis ATCC 29212, obtained from the American Type Culture Collection, were used as the reference and quality control strains. Three vanA gene-carrying vancomycin-resistant isolates of E. faecalis (VRE 342B, VRE 368, VRE 725B) (Department of Infectious Diseases and Microbiology, Faculty of Veterinary Medicine, University of Veterinary Sciences Brno, Czech Republic) were provided by Oravcova et al..
(§3) The minimum inhibitory concentrations (MICs) were evaluated by the microtitration broth method according to the CLSI, with some modifications. The compounds were dissolved in DMSO (Sigma, St. Louis, MO, USA) to obtain a concentration of […] and diluted in a microtitration plate in an appropriate medium, i.e., Cation-Adjusted Mueller–Hinton Broth (CaMH, Oxoid, Basingstoke, UK) for staphylococci, and Brain Heart Infusion Broth (BHI, Oxoid) for enterococci to reach the final concentration of 256–0.125 µg/mL. Microtiter plates were inoculated with test microorganisms so that the final concentration of bacterial cells was 10^5. Ampicillin, oxacillin, and ciprofloxacin (Sigma) were used as reference drugs. A drug-free control and a sterility control were included. The plates were incubated for 24 h at 37 °C for staphylococci and enterococci. […] The experiments were repeated three times.

[2] = system: Enterococcus faecalis ATCC 29212; test: MBC, agar aliquot subculture method, EF; type: cell-based; conditions: ATCC29212, 99.9% decrease in CFU, 24 h, 37 °C
Excerpt: (§4) The activities of the individual derivatives were expressed as minimum inhibitory concentrations (MICs) and minimum bactericidal concentrations (MBCs) and are shown in Table 3 together with the values of the antibiotics used as standards for comparison. […] MBC values of bactericidal compounds are indicated in bold in Table 3.
(§5) For the above-mentioned strains/isolates, the agar aliquot subculture method was used as a test for bactericidal agents. After the MIC value determination, the inoculum was transferred to CaMH (Oxoid) for staphylococci, and BHI (Oxoid) for enterococci medium using a multipoint inoculator. The plates were incubated in a thermostat at 37 °C for 24 h. The lowest concentration of test compound at which ≤5 colonies were obtained was then evaluated as MBC, corresponding to a 99.9% decrease in CFU relative to the original inoculum.

[3] = system: methicillin-resistant S. aureus SA 630; test: MBC, agar aliquot subculture method, MRSA2; type: cell-based; conditions: Staphylococcus aureus; 99.9% decrease in CFU, 24 h, 37 °C
Excerpt: as §4, §5

[4] = system: methicillin-resistant S. aureus SA 3202; test: MIC, microtitration broth method, MRSA1; type: cell-based; conditions: Staphylococcus aureus; 24 h, 37 °C, CaMH broth
Excerpt: as §1, §2, §3

[5] = system: C-32, A549, MDA-MB-231 and HFF-1 cells; test: Wound healing assay; type: cell-based, human; conditions: 3 µM, 72 h after scratching, all cells
Description: Photographs of the cell culture (control and culture exposed to compound 3c at a concentration of 3 µM) were taken after scraping the bottom of the vessel with a pipette tip and then after 72 h of incubation (Figure 2). […] In control cultures, the cell-free surface of the vessel (scraped with a pipette tip) becomes overgrown with cells, while in cultures supplemented with medium containing 3 µM of compound 3c, empty spots are visible. In the case of A549 and MDA-MB-231 cells, entire cell-free regions are clearly visible.
The wound healing assay is a standard in vitro technique for examining collective cell migration in two dimensions. The test involves scratching the bottom of a vessel (wells of a culture plate) with a pipette tip and observing over time how quickly cells move to occupy a free surface under specific culture conditions. In the presented work, the observation was carried out after 72 h of culture. At t = 0, a scratch was made, the medium was replaced with fresh one with the addition of the test compound, and then the cultures were incubated for 72 h. The observation was carried out using an OLYMPUS IX 50 microscope (Tokyo, Japan) with a KERN camera (KERN & SOHN GmbH, Balingen, Germany), and an image analysis system with KERN software (BalanceConnection SCD-4.0 Pro) was used to analyze the observed changes.

| SMILES | MIC [1] [µM] | MBC [2] [µM] | MBC [3] [µM] | MIC [4] [µM] | proliferative activity and migration capacity (wound healing) [5] |
| --- | --- | --- | --- | --- | --- |
| C#CCOc1ccc(NS(=O)(=O)c2ccc(O)c3ncccc23)cc1 [3d, 8-Hydroxy-N-[4-(prop-2-yn-1-yloxy)phenyl]quinoline-5-sulfonamide] | 90.4 (≈ 32 µg/mL) | 362 (≈ 128 µg/mL) | 90.4 (≈ 32 µg/mL) | 45.2 (≈ 16 µg/mL) | – |
| C#CCN(C)S(=O)(=O)c1ccc(O)c2ncccc12 [3c, 8-Hydroxy-N-methyl-N-(prop-2-yn-1-yl)quinoline-5-sulfonamide] | 29 (≈ 8.01 µg/mL) | > 464 | 29 (≈ 8.01 µg/mL) | 29 (≈ 8.01 µg/mL) | reduction in proliferative activity and migration capacity |
| C#CCOc1cccc(NS(=O)(=O)c2ccc(O)c3ncccc23)c1 [3e, 8-Hydroxy-N-[3-(prop-2-yn-1-yloxy)phenyl]quinoline-5-sulfonamide] | 90.4 (≈ 32 µg/mL) | 362 (≈ 128 µg/mL) | 90.4 (≈ 32 µg/mL) | 45.2 (≈ 16 µg/mL) | – |
| C#CC(C)(C)NS(=O)(=O)c1ccc(O)c2ncccc12 [3b, 8-Hydroxy-N-(1,1-dimethylprop-2-yn-1-yl)quinoline-5-sulfonamide] | 110 (≈ 31.9 µg/mL) | > 883 | 110 (≈ 31.9 µg/mL) | 55.2 (≈ 16 µg/mL) | – |
| C#CCNS(=O)(=O)c1ccc(O)c2ncccc12 [3a, 8-Hydroxy-N-(prop-2-yn-1-yl)quinoline-5-sulfonamide] | 244 (≈ 64 µg/mL) | > 977 | 244 (≈ 64 µg/mL) | 122 (≈ 32 µg/mL) | – |
| C#CCOc1ccccc1NS(=O)(=O)c1ccc(O)c2ncccc12 [3f, 8-Hydroxy-N-[2-(prop-2-yn-1-yloxy)phenyl]quinoline-5-sulfonamide] | 90.4 (≈ 32 µg/mL) | 362 (≈ 128 µg/mL) | 90.4 (≈ 32 µg/mL) | 45.2 (≈ 16 µg/mL) | – |
